Results from US9399072B2, “Methods of treatment of pancreatic cancer” (Abraxis BioScience, LLC, priority 2010, dated 2016).

How the values were obtained:
[1] = test system: locally advanced pancreatic cancer; conditions: 126 patients with locally advanced pancreatic cancer; cited from earlier work
[2] = test system: pancreatic cancer; conditions: in vivo; cited from earlier work
[3] = test system: gemcitabine-resistant pancreatic cancer; conditions: second-line, small studies; cited from earlier work
[4] = Phase I study of Nab-paclitaxel with vandetanib: MTD, DLT, adverse events; assay type: in vivo, human
Description: Patients were randomized to one of two cohorts. […] A 3+3 design was used.

## O=c1[nH]cc(F)c(=O)[nH]1 [5-FU, 5-fluororuracil]
[1]
  median overall survival: 4.2 months
  median time to disease progression: 0.9 months

## Nc1ccn([C@@H]2O[C@H](CO)[C@@H](O)C2(F)F)c(=O)n1 [gemcitabine]
[1]
  median overall survival: 5.7 months
  median time to disease progression: 2.1 months
[2]
  median overall survival: 6.0 months
  median progression free survival: 3.5 months

## CC(=O)O[C@H]1C(=O)[C@@]2(C)[C@H]([C@H](OC(=O)c3ccccc3)[C@]3(O)C[C@H](OC(=O)[C@H](O)[C@@H](NC(=O)c4ccccc4)c4ccccc4)C(C)=C1C3(C)C)[C@]1(OC(C)=O)CO[C@@H]1C[C@@H]2O [paclitaxel]
[3]
  median overall survival: 17.5 weeks
  response rate: 6%

## COc1cc2c(Nc3ccc(Br)cc3F)ncnc2cc1OCC1CCN(C)CC1 [vandetanib]
[4]; cohort A: daily, combined with 100 mg/m^2 Nab-paclitaxel weekly for three out of four weeks
  MTD: 300 mg
[4]; cohort B: daily, in combination with 260 mg/m^2 Nab-paclitaxel every three weeks
  MTD: 300 mg
